A word on the IC50: it is the concentration needed to halve the response being measured. High values mean weaker potency in that assay, low ones greater potency in that assay.

The source of these data is ChEMBL document CHEMBL1151483, “Hantupeptin A, a cytotoxic cyclic depsipeptide from a Singapore collection of Lyngbya majuscula” (J Nat Prod, 2009).

One data set relates to LoVo. Put plainly: Cytotoxicity against human LoVo cells at 10 ug/mL after 24 hrs by MTT assay. The format is functional, cell-based. On the technique in general: Tetrazolium dyes change colour on reduction, which living cells bring about.
The next data set deals with KB. Briefly: Cytotoxicity against human KB cells at 10 ug/mL after 24 hrs by MTT assay. Type of data set: functional, cell-based.
The subject of a further data set is MCF7. Put plainly: Cytotoxicity against human MCF7 cells after 24 hrs by MTT assay. Type of data set: functional, cell-based. The conditions noted are these: MCF7, 24 h.
The next data set deals with MOLT-4. Briefly: Cytotoxicity against human MOLT4 cells after 24 hrs by MTT assay. The format is functional, cell-based. The conditions noted are these: MOLT-4, 24 h.
Data set [1] can be described thus: Toxicity in brine shrimp at 10 ppm. The format is organism-based. The conditions noted are these: artemia, in vivo; read-out: Activity.
Data set [2] in a line: Toxicity in brine shrimp at 100 ppm. Type of data set: organism-based. The following applies: artemia, in vivo; read-out: Activity.

The source made the active and inactive calls. No cut-off for these calls is given here.

Regarding `C#CCCC[C@H]1OC(=O)[C@H]([C@@H](C)CC)NC(=O)[C@@H]2CCCN2C(=O)[C@H](Cc2ccccc2)OC(=O)[C@H](C(C)C)N(C)C(=O)[C@H](C(C)C)NC(=O)[C@H]1C`, the result in the data set with LoVo and in the data set with KB was inactive.

In the case of `C#CCCC[C@@H]1OC(=O)[C@H](C(C)C)N(C)C(=O)[C@@H]2CCCN2C(=O)[C@H](Cc2ccccc2)OC(=O)[C@H]([C@@H](C)CC)N(C)C(=O)[C@H](C(C)C)NC(=O)C1C` (stereo partly drawn) [HANTUPEPTIN A], the half-inhibitory concentration (IC50) turned out to be 4000 nM in the data set on MCF7 and 32 nM in the data set with MOLT-4. Also, the result in the data set with LoVo and with KB was inactive. For the same molecule, in data set [1], the mortality at 10 ppm amounted to 100%. Also, in data set [2], the mortality at 100 ppm was 100%.
